pEC50: −log10 of the molar value.
Columns and labels:
human ALX receptor = target: T1, human ALX receptor (Homo sapiens, UniProt P25090); experiment: Intracellular calcium measurements (FLIPR), agonistic activity in HEK293-hALXR-Gα16 cells; assay type: cell-based; details: Fluo-4 calcium FLIPR, normalized to WKYMVm 10 nM
T1 construct: expressed in transfected cells; host or cells: HEK293 (HEK293-hALXR-Gα16)
T1 sequence (P25090 1-351): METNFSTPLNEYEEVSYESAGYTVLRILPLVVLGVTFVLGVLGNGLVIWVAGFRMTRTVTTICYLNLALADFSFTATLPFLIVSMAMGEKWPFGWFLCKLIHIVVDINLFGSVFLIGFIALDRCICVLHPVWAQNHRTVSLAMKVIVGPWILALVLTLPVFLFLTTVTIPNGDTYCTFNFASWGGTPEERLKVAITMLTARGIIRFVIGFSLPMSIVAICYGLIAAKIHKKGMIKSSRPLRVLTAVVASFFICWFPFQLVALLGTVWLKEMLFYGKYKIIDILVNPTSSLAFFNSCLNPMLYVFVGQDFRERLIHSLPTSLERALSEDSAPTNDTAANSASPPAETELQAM
How it was run: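 Agonist-induced calcium flux was recorded by FLIPR (488/540 nm) in HEK293-hALXR-Gα16 cells pre-loaded with Fluo-4 AM (1 μM, 60 min, 37°C). Peak signal above baseline, after subtracting buffer addition, was expressed relative to WKYMVm at 10 nM final.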

human FPRL2 = target: T2, human FPRL2 (Homo sapiens, UniProt P25089); experiment: Intracellular calcium measurements (FLIPR), agonistic activity in HEK293-hFPRL2-Gα16 cells; assay type: cell-based; details: Fluo-4 calcium FLIPR, normalized to GLY14-Humanin 100 nM
T2 construct: expressed in transfected cells; host or cells: HEK293 (HEK293-hFPRL2-Gα16)
T2 sequence (P25089 1-353): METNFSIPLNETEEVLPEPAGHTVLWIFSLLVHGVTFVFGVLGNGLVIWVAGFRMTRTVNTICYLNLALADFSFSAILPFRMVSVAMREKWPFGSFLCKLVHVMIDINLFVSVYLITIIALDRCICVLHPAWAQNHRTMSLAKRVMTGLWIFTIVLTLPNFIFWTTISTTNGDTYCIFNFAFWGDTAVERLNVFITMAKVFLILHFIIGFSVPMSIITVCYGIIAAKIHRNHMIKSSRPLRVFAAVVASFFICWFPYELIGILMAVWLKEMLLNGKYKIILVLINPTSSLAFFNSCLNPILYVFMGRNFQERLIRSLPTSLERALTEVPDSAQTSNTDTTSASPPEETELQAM
How it was run: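 Peak values after baseline subtraction are expressed relative to 100 nM Gly14-Humanin; compounds diluted in assay buffer from 10 mM DMSO stocks.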

| pEC50 (human ALX receptor) | pEC50 (human FPRL2) | SMILES |
| --- | --- | --- |
| 6.47 | 6.15 | Cn1c(CCC(=O)NC[C@H]2[C@H](C(=O)Nc3ccc(Br)cc3)[C@@H]3C=C[C@H]2C32CC2)nc2ccccc21 (racemic) [Example 185, (5R*)—N^5-(4-Bromo-phenyl)-(6R*)-6-[(3-(1-methyl-1H-benzoimidazol-2-yl)-propionylamino)-methyl]-(4S*,7R*)-[4,7-ethenylene-spiro[2.4]heptane]-5-carboxamide] |
| 6.33 | 5.05 | O=C(CCc1c[nH]c2ccccc12)NC[C@H]1[C@H](C(=O)Nc2ccc(Br)cc2)[C@@H]2C=C[C@H]1C21CC1 (racemic) [Example 186, (5R*)—N^5-(4-Bromo-phenyl)-(6R*)-6-[(3-1H-indol-3-yl-propionylamino)-methyl]-(4S*,7R*)-[4,7-ethenylene-spiro[2.4]heptane]-5-carboxamide] |
| 6.30 | 5.37 | CCCC(=O)NC[C@H]1[C@H](C(=O)Nc2ccc(Br)cc2)[C@@H]2C=C[C@H]1C21CC1 (racemic) [Example 187, (5R*)—N^5-(4-Bromo-phenyl)-(6R*)-6-[(butanoylamino)-methyl]-(4S*,7R*)-[4,7-ethenylene-spiro[2.4]heptane]-5-carboxamide] |
| 6.28 | 5.72 | O=C(CCc1ccc(F)cc1)NC[C@H]1[C@H](C(=O)Nc2ccc(Br)cc2)[C@@H]2C=C[C@H]1C21CC1 (racemic) [Example 188, (5R*)—N^5-(4-Bromo-phenyl)-(6R*)-6-[(3-(4-fluoro-phenyl)-propionylamino)-methyl]-(4S*,7R*)-[4,7-ethenylene-spiro[2.4]heptane]-5-carboxamide] |
| 6.16 | 5.49 | O=C(C=Cc1ccccc1)NC[C@H]1[C@H](C(=O)Nc2ccc(Br)cc2)[C@@H]2C=C[C@H]1C21CC1 (racemic) [Example 189, (5R*)—N^5-(4-Bromo-phenyl)-(6R*)-6-[(3-phenyl-acryloylamino)-methyl]-(4S*,7R*)-[4,7-ethenylene-spiro[2.4]heptane]-5-carboxamide] |
| 6.02 | 5.77 | Cc1nn(C)c(Cl)c1C(=O)NC[C@H]1[C@H](C(=O)Nc2ccc(Br)cc2)[C@@H]2C=C[C@H]1C21CC1 (racemic) [Example 190, (5R*)—N^5-(4-Bromo-phenyl)-(6R*)-6-{[(5-chloro-1,3-dimethyl-1H-pyrazole-4-carbonyl)-amino]-methyl}-(4S*,7R*)-[4,7-ethenylene-spiro[2.4]heptane]-5-carboxamide] |
| 6.85 | 6.08 | CC(=O)c1csc(CNC(=O)[C@H]2[C@H](C(=O)NCCCCN3CCCC3)[C@H]3C=C[C@@H]2C32CC2)n1 (racemic) [Example 191, (5R*)—N^5-(4-Acetyl-thiazol-2-yl-methyl)-(6R*)—N^6-(4-pyrrolidin-1-yl-butyl)-(4S*,7R*)-[4,7-ethenylene-spiro[2.4]heptane]-5,6-dicarboxamide] |
| 7.64 | 6.86 | CC(=O)c1ccc(NC(=O)[C@H]2[C@H](C(=O)NCCCCN3CCCC3)[C@H]3C=C[C@@H]2C32CC2)cc1 (racemic) [Example 192, (5R*)—N^5-(4-Acetyl-phenyl)-(6R*)—N^6-(4-pyrrolidin-1-yl-butyl)-(4S*,7R*)-[4,7-ethenylene-spiro[2.4]heptane]-5,6-dicarboxamide] |
| 6.33 | 6.45 | Cc1cnc(NC(=O)[C@H]2[C@H](C(=O)NCCCCN3CCCC3)[C@H]3C=C[C@@H]2C32CC2)s1 (racemic) [Example 193, (5R*)—N^5-(5-Methyl-thiazol-2-yl)-(6R*)—N^6-(4-pyrrolidin-1-yl-butyl)-(4S*,7R*)-[4,7-ethenylene-spiro[2.4]heptane]-5,6-dicarboxamide] |
| 6.65 | 6.36 | CC(=O)c1ccc(CNC(=O)[C@H]2[C@H](C(=O)NCCCCN3CCCC3)[C@H]3C=C[C@@H]2C32CC2)s1 (racemic) [Example 194, (5R*)—N^5-(5-Acetyl-thiophen-2-yl-methyl)-(6R*)—N^6-(4-pyrrolidin-1-yl-butyl)-(4S*,7R*)-[4,7-ethenylene-spiro[2.4]heptane]-5,6-dicarboxamide] |
| 8.27 | 6.98 | O=C(NCCCCN1CCCC1)[C@H]1[C@H](C(=O)Nc2ccc(C(F)(F)F)cc2)[C@@H]2C=C[C@H]1C21CC1 (racemic) [Example 197, (5R*)—N^5-(4-Trifluoromethyl-phenyl)-(6R*)—N^6-(4-pyrrolidin-1-yl-butyl)-(4S*,7R*)-[4,7-ethenylene-spiro[2.4]heptane]-5,6-dicarboxamide] |
| 7.04 | 6.34 | CC(=O)c1ncc(CNC(=O)[C@H]2[C@H](C(=O)NCCCCN3CCCC3)[C@H]3C=C[C@@H]2C32CC2)o1 (racemic) [Example 198, (5R*)—N^5-(2-Acetyl-oxazol-5-yl-methyl)-(6R*)—N^6-(4-pyrrolidin-1-yl-butyl)-(4S*,7R*)-[4,7-ethenylene-spiro[2.4]heptane]-5,6-dicarboxamide] |
| 7.38 | 6.63 | O=C(NCCCCN1CCCC1)[C@H]1[C@H](C(=O)NCc2ccc(I)cc2)[C@@H]2C=C[C@H]1C21CC1 (racemic) [Example 200, (5R*)—N^5-(4-Iodophenyl-methyl)-(6R*)—N^6-(4-pyrrolidin-1-yl-butyl)-(4S*,7R*)-[4,7-ethenylene-spiro[2.4]heptane]-5,6-dicarboxamide] |
| 7.03 | 5.84 | CC(C)Cc1cc(CNC(=O)[C@H]2[C@H](C(=O)NCCCCN3CCCC3)[C@H]3C=C[C@@H]2C32CC2)no1 (racemic) [Example 201, (5R*)—N^5-(5-(iso-Butyl)-isoxazol-3-yl-methyl)-(6R*)—N^6-(4-pyrrolidin-1-yl-butyl)-(4S*,7R*)-[4,7-ethenylene-spiro[2.4]heptane]-5,6-dicarboxamide] |
| 7.48 | 7.12 | O=C(NCCCCN1CCCC1)[C@H]1[C@H](C(=O)NCc2csc(Br)c2)[C@@H]2C=C[C@H]1C21CC1 (racemic) [Example 202, (5R*)—N^5-(2-Bromo-thiophen-4-yl-methyl)-(6R*)—N^6-(4-pyrrolidin-1-yl-butyl)-(4S*,7R*)-[4,7-ethenylene-spiro[2.4]heptane]-5,6-dicarboxamide] |
| 7.62 | 6.70 | O=C(NCCCCN1CCCC1)[C@H]1[C@H](C(=O)NCc2ccc(Br)cc2F)[C@@H]2C=C[C@H]1C21CC1 (racemic) [Example 203, (5R*)—N^5-(2-Fluoro-4-bromophenyl-methyl)-(6R*)—N^6-(4-pyrrolidin-1-yl-butyl)-(4S*,7R*)-[4,7-ethenylene-spiro[2.4]heptane]-5,6-dicarboxamide] |
| 8.47 | 5.68 | CN(C)C(=O)CCNC(=O)[C@H]1[C@H](C(=O)Nc2ccc(Br)cc2)[C@@H]2C=C[C@H]1C21CC1 (racemic) [Example 204, (5R*)—N^5-(4-Bromophenyl)-(6R*)—N^6-(3-dimethylamino-3-oxopropyl)-(4S*,7R*)-[4,7-ethenylene-spiro[2.4]heptane]-5,6-dicarboxamide] |
| 8.14 | 5.32 | NC(=O)CCCNC(=O)[C@H]1[C@H](C(=O)Nc2ccc(Br)cc2)[C@@H]2C=C[C@H]1C21CC1 (racemic) [Example 205, (5R*)—N^5-(4-Bromophenyl)-(6R*)—N^6-(4-amino-4-oxobutyl)-(4S*,7R*)-[4,7-ethenylene-spiro[2.4]heptane]-5,6-dicarboxamide] |
| 7.51 | 5.53 | O=C(NCCC(=O)N1CCCC1)[C@H]1[C@H](C(=O)Nc2ccc(Br)cc2)[C@@H]2C=C[C@H]1C21CC1 (racemic) [Example 206, (5R*)—N^5-(4-Bromophenyl)-(6R*)—N^6-(3-pyrrolidino-3-oxopropyl)-(4S*,7R*)-[4,7-ethenylene-spiro[2.4]heptane]-5,6-dicarboxamide] |
| 8.19 | 5.13 | NC(=O)CNC(=O)[C@H]1[C@H](C(=O)Nc2ccc(Br)cc2)[C@@H]2C=C[C@H]1C21CC1 (racemic) [Example 207, (5R*)—N^5-(4-Bromophenyl)-(6R*)—N^6-(2-amino-2-oxoethyl)-(4S*,7R*)-[4,7-ethenylene-spiro[2.4]heptane]-5,6-dicarboxamide] |
| 8.49 | 5.92 | CNC(=O)CCNC(=O)[C@H]1[C@H](C(=O)Nc2ccc(Br)cc2)[C@@H]2C=C[C@H]1C21CC1 (racemic) [Example 223, (5R*)—N^5-(4-Bromophenyl)-(6R*)—N^6-(3-methylamino-3-oxopropyl)-(4S*,7R*)-[4,7-ethenylene-spiro[2.4]heptane]-5,6-dicarboxamide] |

— patent publication US8563714B2, “Bridged spiro [2.4] heptane derivatives as ALX receptor and/or FPRL2 agonists” (Actelion Pharmaceuticals Ltd., priority 2009, dated 2013)
